This passage reports remaining activity results from patent US20240246942A1, “KINASE INHIBITORS FOR THE TREATMENT OF NEURODEGENERATIVE DISEASES” (priority 2020, published 2024).

Common to all, as to experiment: biochemical
For assay [1], the target named is T1, panel of 374 wild-type kinases (Homo sapiens, UniProt Q15375).
T1 construct: purchased Reaction Biology Corporation
As to conditions: read-out: % Enzyme Activity (relative to DMSO controls), EPHA7.

Assay [2] has as its target T2, panel of 374 wild-type kinases (Homo sapiens, UniProt P22607).
T2 construct: purchased Reaction Biology Corporation
The note with it: read-out: % Enzyme Activity (relative to DMSO controls), FGFR3.

The target in assay [3] is T3, panel of 374 wild-type kinases (Homo sapiens, UniProt O75582).
T3 construct: purchased Reaction Biology Corporation
The note with it: read-out: % Enzyme Activity (relative to DMSO controls), MSK1/RPS6KA5.

The target in assay [4] is T4, panel of 374 wild-type kinases (Homo sapiens, UniProt P36888).
T4 construct: purchased Reaction Biology Corporation
T4 sequence (P36888 27-993): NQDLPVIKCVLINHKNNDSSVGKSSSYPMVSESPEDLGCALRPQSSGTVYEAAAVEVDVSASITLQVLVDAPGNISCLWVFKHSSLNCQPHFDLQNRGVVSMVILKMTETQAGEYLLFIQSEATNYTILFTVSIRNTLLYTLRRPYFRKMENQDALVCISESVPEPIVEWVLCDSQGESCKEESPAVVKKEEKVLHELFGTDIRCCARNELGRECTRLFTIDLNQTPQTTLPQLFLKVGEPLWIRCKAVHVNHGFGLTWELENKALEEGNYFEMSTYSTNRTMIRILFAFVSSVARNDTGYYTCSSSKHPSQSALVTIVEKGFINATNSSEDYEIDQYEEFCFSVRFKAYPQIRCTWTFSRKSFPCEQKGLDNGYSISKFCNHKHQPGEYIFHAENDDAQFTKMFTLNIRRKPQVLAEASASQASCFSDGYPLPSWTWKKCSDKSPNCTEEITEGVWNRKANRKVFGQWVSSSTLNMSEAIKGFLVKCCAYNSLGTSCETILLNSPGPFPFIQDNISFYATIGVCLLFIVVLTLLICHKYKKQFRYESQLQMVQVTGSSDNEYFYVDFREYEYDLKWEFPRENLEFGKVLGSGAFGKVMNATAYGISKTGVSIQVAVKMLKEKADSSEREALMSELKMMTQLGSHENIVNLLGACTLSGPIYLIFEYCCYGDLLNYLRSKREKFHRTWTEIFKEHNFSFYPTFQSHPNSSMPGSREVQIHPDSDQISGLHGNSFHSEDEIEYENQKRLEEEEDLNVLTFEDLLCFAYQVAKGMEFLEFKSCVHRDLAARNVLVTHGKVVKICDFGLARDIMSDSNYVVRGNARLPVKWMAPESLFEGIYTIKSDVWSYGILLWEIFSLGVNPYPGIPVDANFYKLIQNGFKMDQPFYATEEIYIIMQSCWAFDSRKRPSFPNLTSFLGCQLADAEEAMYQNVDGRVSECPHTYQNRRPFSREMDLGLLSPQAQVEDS
As to conditions: read-out: % Enzyme Activity (relative to DMSO controls), FLT3.

The target of assay [5] is T5, panel of 374 wild-type kinases (Homo sapiens, UniProt P37173).
T5 construct: purchased Reaction Biology Corporation
T5 sequence (P37173 23-567): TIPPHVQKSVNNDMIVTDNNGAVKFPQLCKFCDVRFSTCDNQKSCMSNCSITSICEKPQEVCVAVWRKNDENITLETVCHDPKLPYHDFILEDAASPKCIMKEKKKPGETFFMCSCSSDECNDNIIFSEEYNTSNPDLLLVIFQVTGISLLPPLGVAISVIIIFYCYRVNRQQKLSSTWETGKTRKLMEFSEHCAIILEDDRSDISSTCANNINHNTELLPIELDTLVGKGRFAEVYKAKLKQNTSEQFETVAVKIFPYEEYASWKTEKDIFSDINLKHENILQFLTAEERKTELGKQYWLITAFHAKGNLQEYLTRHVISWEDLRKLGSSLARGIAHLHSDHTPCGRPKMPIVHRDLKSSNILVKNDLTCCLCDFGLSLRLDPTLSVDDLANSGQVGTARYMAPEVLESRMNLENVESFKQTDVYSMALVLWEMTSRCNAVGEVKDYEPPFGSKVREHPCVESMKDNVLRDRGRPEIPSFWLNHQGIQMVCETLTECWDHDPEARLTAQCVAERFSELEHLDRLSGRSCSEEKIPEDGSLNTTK
As to conditions: read-out: % Enzyme Activity (relative to DMSO controls), kinase TGFBR2.

Assay [6] addresses T6, panel of 374 wild-type kinases (Homo sapiens, UniProt Q8IVH8).
T6 construct: purchased Reaction Biology Corporation
T6 sequence (Q8IVH8 1-894): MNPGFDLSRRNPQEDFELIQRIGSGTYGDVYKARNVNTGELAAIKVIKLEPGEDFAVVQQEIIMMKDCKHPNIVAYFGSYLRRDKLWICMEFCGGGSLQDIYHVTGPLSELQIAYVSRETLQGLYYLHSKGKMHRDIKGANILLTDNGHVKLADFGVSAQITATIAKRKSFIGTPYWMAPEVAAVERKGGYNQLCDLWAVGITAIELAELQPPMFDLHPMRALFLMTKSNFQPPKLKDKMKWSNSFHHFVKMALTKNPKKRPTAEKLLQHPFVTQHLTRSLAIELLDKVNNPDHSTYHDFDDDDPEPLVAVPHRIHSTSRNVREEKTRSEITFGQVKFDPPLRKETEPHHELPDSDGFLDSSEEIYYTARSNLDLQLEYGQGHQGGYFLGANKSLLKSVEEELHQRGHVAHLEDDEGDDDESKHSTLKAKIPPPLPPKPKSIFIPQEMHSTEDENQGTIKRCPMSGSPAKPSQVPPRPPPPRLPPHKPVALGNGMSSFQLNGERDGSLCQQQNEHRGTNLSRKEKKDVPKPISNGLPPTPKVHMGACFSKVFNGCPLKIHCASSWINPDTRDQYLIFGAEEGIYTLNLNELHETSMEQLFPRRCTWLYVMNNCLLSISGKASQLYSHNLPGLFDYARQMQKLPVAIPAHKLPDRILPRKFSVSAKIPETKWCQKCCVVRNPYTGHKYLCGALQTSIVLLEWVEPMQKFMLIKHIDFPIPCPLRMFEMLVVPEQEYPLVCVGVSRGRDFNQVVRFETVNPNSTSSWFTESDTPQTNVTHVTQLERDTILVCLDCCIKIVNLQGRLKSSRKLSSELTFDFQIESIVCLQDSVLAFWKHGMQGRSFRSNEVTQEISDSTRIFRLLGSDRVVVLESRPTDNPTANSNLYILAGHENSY
As to conditions: read-out: % Enzyme Activity (relative to DMSO controls), GLK/MAP4K3.

Assay [7] concerns the target T7, panel of 374 wild-type kinases (Homo sapiens, UniProt P08922).
T7 construct: purchased Reaction Biology Corporation
As to conditions: read-out: % Enzyme Activity (relative to DMSO controls), kinase ROS/ROS1.

Assay [8] has as its target T8, panel of 374 wild-type kinases (Homo sapiens, UniProt P07332).
T8 construct: purchased Reaction Biology Corporation
As to conditions: read-out: % Enzyme Activity (relative to DMSO controls), FES/FPS.

T7 sequence (P08922 28-2347): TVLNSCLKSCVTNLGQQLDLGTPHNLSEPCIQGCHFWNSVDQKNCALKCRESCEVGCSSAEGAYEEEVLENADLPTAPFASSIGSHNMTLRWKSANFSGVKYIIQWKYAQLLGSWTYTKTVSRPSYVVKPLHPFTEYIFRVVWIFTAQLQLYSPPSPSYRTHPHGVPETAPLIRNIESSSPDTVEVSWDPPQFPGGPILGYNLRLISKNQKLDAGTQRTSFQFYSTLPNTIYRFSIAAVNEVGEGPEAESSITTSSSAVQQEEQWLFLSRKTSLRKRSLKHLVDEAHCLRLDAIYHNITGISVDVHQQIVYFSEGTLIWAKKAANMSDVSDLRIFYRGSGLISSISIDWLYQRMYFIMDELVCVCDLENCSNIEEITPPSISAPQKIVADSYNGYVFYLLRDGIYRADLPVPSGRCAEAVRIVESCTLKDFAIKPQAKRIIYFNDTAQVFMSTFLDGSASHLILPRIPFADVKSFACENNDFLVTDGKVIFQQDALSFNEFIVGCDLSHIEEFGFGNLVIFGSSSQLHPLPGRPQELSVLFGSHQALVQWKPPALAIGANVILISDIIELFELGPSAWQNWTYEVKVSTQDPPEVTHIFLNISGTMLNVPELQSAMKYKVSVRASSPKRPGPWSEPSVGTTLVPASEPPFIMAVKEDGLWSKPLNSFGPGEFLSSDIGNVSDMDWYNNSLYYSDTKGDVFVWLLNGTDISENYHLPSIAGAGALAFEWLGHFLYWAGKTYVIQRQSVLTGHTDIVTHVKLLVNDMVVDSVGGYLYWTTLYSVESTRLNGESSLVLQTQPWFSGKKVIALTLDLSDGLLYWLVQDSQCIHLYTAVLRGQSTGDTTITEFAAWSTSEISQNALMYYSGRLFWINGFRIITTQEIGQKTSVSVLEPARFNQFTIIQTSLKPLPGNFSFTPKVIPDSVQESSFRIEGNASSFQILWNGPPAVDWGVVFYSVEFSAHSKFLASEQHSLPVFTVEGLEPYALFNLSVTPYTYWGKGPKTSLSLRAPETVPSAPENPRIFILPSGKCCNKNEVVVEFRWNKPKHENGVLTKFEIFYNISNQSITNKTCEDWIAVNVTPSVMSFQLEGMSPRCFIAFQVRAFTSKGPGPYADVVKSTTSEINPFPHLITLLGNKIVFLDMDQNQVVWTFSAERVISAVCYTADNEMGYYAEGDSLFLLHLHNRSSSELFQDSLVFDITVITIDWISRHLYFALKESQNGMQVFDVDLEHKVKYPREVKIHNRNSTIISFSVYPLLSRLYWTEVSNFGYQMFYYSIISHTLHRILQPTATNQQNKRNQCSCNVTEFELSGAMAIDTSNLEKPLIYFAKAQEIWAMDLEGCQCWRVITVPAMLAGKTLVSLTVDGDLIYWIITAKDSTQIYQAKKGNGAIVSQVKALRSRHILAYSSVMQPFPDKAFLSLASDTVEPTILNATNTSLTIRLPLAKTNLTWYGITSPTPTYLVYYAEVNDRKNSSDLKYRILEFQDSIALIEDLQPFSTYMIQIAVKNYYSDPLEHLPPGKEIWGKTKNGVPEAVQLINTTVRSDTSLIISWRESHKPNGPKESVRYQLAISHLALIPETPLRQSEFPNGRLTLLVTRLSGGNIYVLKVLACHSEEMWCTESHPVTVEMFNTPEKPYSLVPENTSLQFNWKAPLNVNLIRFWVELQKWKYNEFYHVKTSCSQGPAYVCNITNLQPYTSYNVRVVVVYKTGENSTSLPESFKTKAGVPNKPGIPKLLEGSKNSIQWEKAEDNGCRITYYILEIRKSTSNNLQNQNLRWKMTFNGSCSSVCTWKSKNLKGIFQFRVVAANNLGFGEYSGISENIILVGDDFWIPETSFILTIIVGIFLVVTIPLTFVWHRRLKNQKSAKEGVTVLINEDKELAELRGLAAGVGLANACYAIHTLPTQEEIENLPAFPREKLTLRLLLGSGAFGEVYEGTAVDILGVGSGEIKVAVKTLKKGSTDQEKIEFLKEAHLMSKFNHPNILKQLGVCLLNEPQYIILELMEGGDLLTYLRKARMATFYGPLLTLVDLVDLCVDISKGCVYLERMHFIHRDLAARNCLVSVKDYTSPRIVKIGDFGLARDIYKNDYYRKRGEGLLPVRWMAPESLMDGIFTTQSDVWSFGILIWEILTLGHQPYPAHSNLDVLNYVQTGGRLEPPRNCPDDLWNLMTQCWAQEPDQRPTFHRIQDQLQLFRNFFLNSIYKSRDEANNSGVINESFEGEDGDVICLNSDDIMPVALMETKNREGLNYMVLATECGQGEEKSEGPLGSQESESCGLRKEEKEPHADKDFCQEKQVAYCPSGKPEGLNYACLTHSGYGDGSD
T2 sequence (P22607 23-806): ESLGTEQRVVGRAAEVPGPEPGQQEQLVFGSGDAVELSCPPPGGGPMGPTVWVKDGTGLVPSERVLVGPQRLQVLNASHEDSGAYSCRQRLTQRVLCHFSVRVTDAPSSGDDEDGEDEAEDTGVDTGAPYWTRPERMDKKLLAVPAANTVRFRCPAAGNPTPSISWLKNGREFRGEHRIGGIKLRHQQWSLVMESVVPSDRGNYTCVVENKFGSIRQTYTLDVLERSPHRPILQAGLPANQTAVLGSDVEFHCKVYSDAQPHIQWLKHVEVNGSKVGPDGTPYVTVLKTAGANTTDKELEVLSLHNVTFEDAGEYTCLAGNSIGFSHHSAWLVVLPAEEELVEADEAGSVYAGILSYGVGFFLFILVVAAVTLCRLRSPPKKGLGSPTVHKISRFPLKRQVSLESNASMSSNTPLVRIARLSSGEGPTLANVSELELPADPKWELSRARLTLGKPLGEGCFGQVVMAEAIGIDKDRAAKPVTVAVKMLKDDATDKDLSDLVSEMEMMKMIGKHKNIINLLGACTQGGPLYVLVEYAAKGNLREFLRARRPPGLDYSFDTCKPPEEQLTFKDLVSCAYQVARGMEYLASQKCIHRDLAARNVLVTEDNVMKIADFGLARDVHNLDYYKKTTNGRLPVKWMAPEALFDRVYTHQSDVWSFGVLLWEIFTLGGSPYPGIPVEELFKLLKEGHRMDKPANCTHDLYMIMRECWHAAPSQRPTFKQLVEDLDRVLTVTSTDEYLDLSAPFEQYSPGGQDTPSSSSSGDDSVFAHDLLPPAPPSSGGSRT
T1 sequence (Q15375 28-998): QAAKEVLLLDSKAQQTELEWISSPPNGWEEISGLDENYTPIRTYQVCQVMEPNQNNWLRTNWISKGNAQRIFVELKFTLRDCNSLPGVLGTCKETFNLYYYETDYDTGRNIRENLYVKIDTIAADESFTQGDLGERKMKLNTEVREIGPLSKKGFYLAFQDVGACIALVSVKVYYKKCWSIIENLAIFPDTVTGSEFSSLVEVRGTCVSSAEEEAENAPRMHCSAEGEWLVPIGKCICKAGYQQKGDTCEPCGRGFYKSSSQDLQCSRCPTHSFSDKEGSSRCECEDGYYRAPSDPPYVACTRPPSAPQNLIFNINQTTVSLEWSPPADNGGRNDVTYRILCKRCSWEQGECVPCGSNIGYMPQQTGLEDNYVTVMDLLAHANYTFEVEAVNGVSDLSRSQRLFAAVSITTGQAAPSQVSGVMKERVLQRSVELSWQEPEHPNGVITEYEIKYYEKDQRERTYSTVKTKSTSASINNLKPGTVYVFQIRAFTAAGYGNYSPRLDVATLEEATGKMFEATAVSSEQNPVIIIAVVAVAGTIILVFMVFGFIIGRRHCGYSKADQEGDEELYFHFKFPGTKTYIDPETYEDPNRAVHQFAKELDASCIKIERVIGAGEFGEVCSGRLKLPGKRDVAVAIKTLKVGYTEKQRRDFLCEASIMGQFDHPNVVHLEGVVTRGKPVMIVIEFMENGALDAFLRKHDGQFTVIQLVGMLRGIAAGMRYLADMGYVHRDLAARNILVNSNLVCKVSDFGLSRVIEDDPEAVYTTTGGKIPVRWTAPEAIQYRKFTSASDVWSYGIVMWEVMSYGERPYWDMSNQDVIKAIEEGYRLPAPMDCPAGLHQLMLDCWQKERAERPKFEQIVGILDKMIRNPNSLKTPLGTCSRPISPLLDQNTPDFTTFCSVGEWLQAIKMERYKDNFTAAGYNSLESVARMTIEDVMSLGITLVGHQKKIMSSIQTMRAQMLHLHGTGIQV

Regarding `O=C(Nc1cnn(-c2csc(C(=O)NC3COC3)c2)c1)Nc1ccccc1Cl` [Compound 17, 4-(4-(3-(2-chlorophenyl)ureido)-1H-pyrazol-1-yl)-N-(oxetan-3-yl)thiophene-2-carboxamide], the remaining activity at 5 µM in assay [1] came to 103%; in assay [2], 97.8%; in assay [3], 89.5%; in assay [4], 89.7%; in assay [5], 113%; in assay [6] it was 97.5%. The remaining activity at 5 µM came to 103% in assay [7] and 99.3% in assay [8].
On to `O=C(Nc1cnn(-c2csc(C(=O)NC3COC3)c2)c1)Nc1c(F)cccc1Cl` [Compound 25, 4-(4-(3-(2-chloro-6-fluorophenyl)ureido)-1H-pyrazol-1-yl)-N-(oxetan-3-yl)thiophene-2-carboxamide], for which the remaining activity at 5 µM turned out to be 91.2% in assay [1]; 92% in assay [2]; 104% in assay [3]; 99.2% in assay [4]; 82.6% in assay [5]; 100% in assay [6]. The results for the remaining activity at 5 µM in assay [7] and in assay [8] were 85.5% and 87.8%, respectively.
For `Cc1sc(C(=O)NC2COC2)cc1-n1cc(NC(=O)Nc2c(F)cccc2Cl)cn1` [Compound 27, 4-(4-(3-(2-chloro-6-fluorophenyl)ureido)-1H-pyrazol-1-yl)-5-methyl-N-(oxetan-3-yl)thiophene-2-carboxamide], the remaining activity at 10 µM came out at 98.6% in assay [1] (10 uM); 137% in assay [2] (10 uM); 111% in assay [3] (10 uM); 69.1% in assay [4] (10 uM); 86.8% in assay [5] (10 uM); 118% in assay [6] (10 uM). Also, the remaining activity at 10 µM turned out to be 102% in assay [7] (10 uM) and 93.7% in assay [8] (10 uM).
